PMC3565575 (Bioorganic & medicinal chemistry, 2010)

Tests used:
sigma-1 receptor = sigma-1 receptor (Cavia porcellus, UniProt Q60492); test: Sigma-1 receptor competitive binding against; details: Sigma 1 K1 values (nM) (± SEM, n=3), R^2 value, guinea pig liver membranes, 10 nM (+)-[3H]-pentazocine, brackets: SEM
[1] = system: SKOV-3 (human ovarian adenocarcinoma); test: Multi-plex cytotoxicity assay, SKOV-3; format: cell-based; details: SKOV-3 cells

Sequence of sigma-1 receptor (Q60492 whole entry): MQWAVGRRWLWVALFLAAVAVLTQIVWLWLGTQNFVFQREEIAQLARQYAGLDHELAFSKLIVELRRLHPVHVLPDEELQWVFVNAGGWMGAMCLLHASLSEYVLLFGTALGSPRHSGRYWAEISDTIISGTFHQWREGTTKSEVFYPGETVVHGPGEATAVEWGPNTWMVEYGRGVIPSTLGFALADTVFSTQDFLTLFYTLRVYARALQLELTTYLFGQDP

Row | Ki (sigma-1 receptor) | Structure (SMILES) | Growth inhibition (in words) [1]
1 | > 100000 nM | CCCN(Cc1cccc([N+](=O)[O-])c1)C(=O)CCc1ccc(F)cc1 [compound 6, 3-(4-Fluorophenyl)-N-(3-nitrobenzyl)-N-propylpropanamide] | –
2 | – | CCCCN(CCCC)CCCc1ccc(F)cc1 [compound 9, N.N-Dibutyl-3-(4-fluorophenyl)propylamine] | the only cell line whose growth is inhibited by compound 9
